Source: US20050107616A1, “Alpha-ketoamide derivatives as cathepsin k inhibitors” (priority 2001, published 2005)

Tests used:
Assay type in all cases: biochemical
human cathepsin S = human cathepsin S (Homo sapiens, UniProt P25774); assay: Cathepsin S inhibition assay, fluorogenic substrate Cbz-Val-Val-Arg-AMC; settings: Table 2; human recombinant enzyme, pH 5.5, 30° C., 10 μM substrate; read-out: hCat S Ki
Description: (§1) All assays for cathepsin K were carried out with human and rat recombinant enzyme. Assays for cathepsins S Et V were also carried out with human recombinant enzyme. Assays for human cathepsins B. H. and L were carried out with enzyme, purchased from Athens Research and Technology, Inc., prepared from human liver tissue. Standard assay conditions for the determination of kinetic constants used a fluorogenic peptide substrate, typically (5S,8S)-13-amino-5-benzyl-13-imino-3-methylene-N-(4methyl-2-oxo-2H-chromen-7-yl)-6-oxo-1-phenyl-2-oxa-4,7,12-triazatridecane-8-carboxamide (Cbz-Phe-Arg-AMC), and were determined in 100 mM sodium acetate at pH 5.5 containing 10 mM dithiothreitol and 120 mM sodium chloride. A stock substrate solution of Cbz-Phe-Arg-AMC was prepared at a concentration of 50 mM in dimethyl sulfoxide. This substrate was diluted into the assay for a final substrate concentration of 10 μM in the rat cathepsin K, human cathepsin K, and human cathepsin B assays; a final substrate concentration of 5 μM in the human cathepsin L assay; and a final substrate concentration of 2 μM in the human cathepsin V assay.
A stock substrate solution of benzyl (1S)-1-{[((1S)-1-{[((1S)-4-{[amino(imino)methyl]amino}-1-{[(4-methyl-2-oxo-2H-chromen-7-yl)amino]carbonyl}butyl)amino]carbonyl}-2-methylpropyl)amino]carbonyl}-2-methylpropylcarbamate (Cbz-Val-Val-Arg-AMC) was prepared at a concentration of 10 mM in dimethyl sulfoxide. This substrate was diluted into the assay for a final substrate concentration of 10 μM in the human cathepsin S assay.
(§2) All assays contained 10% dimethyl sulfoxide. […] All assays were conducted at 30° C. Product fluorescence (excitation at 360 nm; emission at 440 nm, (except cathepsin H which used excitation at 340 nm; emission at 420 nm)) was monitored with a PerSeptive Biosystems Cytofluor II fluorescence plate reader. Product progress curves were generated over 2.3 h monitoring the formation of 7-amino-4-methylcoumarin product (or β-naphthalamide for cathepsin H).
(§3) Potential inhibitors were evaluated using the progress curve method. Assays were carried out in the presence of variable concentrations of test compound. Reactions were initiated by addition of buffered solutions of inhibitor and substrate to enzyme. Data analysis was conducted according to one of two procedures depending on the appearance of the progress curves in the presence of inhibitors. For those compounds whose progress curves were linear, the enzymatic activity (RATE) was plotted against the concentration of test compound, including inhibitor concentration of zero ([I]=0), and the IC50 determined from a fit of equation 1 to the data, RATE=Vmax/(1+([I]/IC50)) (1) where Vmax is the best fit estimate of the maximal enzymatic activity. Ki values were calculated from IC50 values using equation 2 assuming a competitive model. [formula]

human cathepsin H = human cathepsin H (Homo sapiens, UniProt P09668); assay: Cathepsin H inhibition assay, substrate L-Arg-β-naphthalamide; settings: Table 2; enzyme from human liver tissue, pH 5.5, 30° C.; read-out: hCat H Ki
Description: as §1
A stock substrate solution of (2S)-2-amino-5-{[amino(imino)methyl]amino}-N-(2-naphthyl)pentanamide hydrochloride (L-Arg-β-naphthalamide.HCl) was prepared at a concentration of 10 mM in dimethyl sulfoxide. This substrate was diluted into the assay for a final substrate concentration of […] in the cathepsin H assay.
as §2, §3

human cathepsin B = human cathepsin B (Homo sapiens, UniProt P07858); assay: Cathepsin B inhibition assay, fluorogenic substrate Cbz-Phe-Arg-AMC; settings: Table 2; enzyme from human liver tissue, pH 5.5, 30° C., 10 μM substrate; read-out: hCat B Ki
Description: as §1, §2, §3

Sequence of human cathepsin H (P09668 116-335 limits assumed, other chains not shown): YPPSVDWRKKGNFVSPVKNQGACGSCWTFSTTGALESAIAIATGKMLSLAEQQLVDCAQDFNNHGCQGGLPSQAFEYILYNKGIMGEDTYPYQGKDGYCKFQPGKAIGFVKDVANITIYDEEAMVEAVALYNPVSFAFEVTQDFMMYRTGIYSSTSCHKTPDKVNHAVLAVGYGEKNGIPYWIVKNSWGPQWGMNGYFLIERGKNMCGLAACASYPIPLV
Sequence of human cathepsin S (P25774 115-331): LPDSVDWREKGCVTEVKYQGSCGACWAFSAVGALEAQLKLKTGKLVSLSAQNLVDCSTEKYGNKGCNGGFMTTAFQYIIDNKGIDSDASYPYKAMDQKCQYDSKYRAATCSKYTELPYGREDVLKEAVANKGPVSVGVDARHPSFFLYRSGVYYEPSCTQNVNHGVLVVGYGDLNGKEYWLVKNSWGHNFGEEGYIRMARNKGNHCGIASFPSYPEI

Row | Ki (human cathepsin S) | Ki (human cathepsin H) | Ki (human cathepsin B) | SMILES
1 | 1 to 100 nM | 100 to 10000 nM | 1 to 100 nM | CCCC[C@H](NC(=O)O[C@H](c1nnc(-c2ccc(C(F)(F)F)cc2)o1)C(C)(C)C)C(=O)C(=O)Nc1ccn[nH]1 [Example 38, (1S)-2,2-dimethyl-1-{5-[4-(trifluoromethyl)phenyl]-1,3,4-oxadiazol-2-yl}propyl(1S)-1-[oxo(1H-pyrazol-5-ylamino)acetyl]pentylcarbamate]
2 | 0.01 to 1 nM | 100 to 10000 nM | 1 to 100 nM | CCCC[C@H](NC(=O)O[C@H](Cn1cnc(-c2ccc(C(F)(F)F)cc2)c1)C(C)(C)C)C(=O)C(=O)Nc1ccn[nH]1 [Example 7, (1S)-2,2-dimethyl-1-({4-[4-(trifluoromethyl)phenyl]-1H-imidazol-1-yl}methyl)propyl(1S)-1-[oxo(1H-pyrazol-5-ylamino)acetyl]pentylcarbamate]
3 | 0.01 to 1 nM | 100 to 10000 nM | 1 to 100 nM | CCCC[C@H](NC(=O)O[C@H](Cn1cnc2cc(Cl)c(Cl)cc21)C(C)(C)C)C(=O)C(=O)Nc1ccn[nH]1 [Example 37, (1S)-1-[(5,6-dichloro-1H-benzimidazol-1-yl)methyl]-2,2-dimethylpropyl(1S)-1-[oxo(1H-pyrazol-5-ylamino)acetyl]pentylcarbamate]
4 | 1 to 100 nM | 100 to 10000 nM | 1 to 100 nM | CCCC[C@H](NC(=O)O[C@H](c1nnc(-c2ccc(C(F)(F)F)cc2)o1)C(C)(C)C)C(=O)C(=O)NN1CCOC1=O [Example 39, (1S)-2,2-dimethyl-1-{5-[4-(trifluoromethyl)phenyl]-1,3,4-oxadiazol-2-yl}propyl(1S)-1-{oxo[(2-oxo-1,3-oxazolidin-3-yl)amino]acetyl}pentylcarbamate]
5 | 100 to 10000 nM | – | 100 to 10000 nM | CCCC[C@H](NC(=O)O[C@H](Cc1nnc(-c2ccc(F)cc2)o1)C(C)(C)C)C(=O)C(=O)Nc1ccnn1C (stereo in doubt) [Example 22, (1R)-1-{[5-(4-fluorophenyl)-1,3,4-oxadiazol-2-yl]methyl}-2,2-dimethylpropyl(1S)-1-[[(1-methyl-1H-pyrazol-5-yl)amino](oxo)acetyl]pentyl carbamate]
6 | 0.01 to 1 nM | 100 to 10000 nM | 1 to 100 nM | CCCC[C@H](NC(=O)O[C@H](Cn1ccc(-c2ccc(C(F)(F)F)cc2)n1)C(C)(C)C)C(=O)C(=O)Nc1ccn[nH]1 [Example 1]
7 | 1 to 100 nM | 100 to 10000 nM | 100 to 10000 nM | CCCC[C@H](NC(=O)O[C@H](Cn1cnc(-c2ccc(C(F)(F)F)cc2)c1)C(C)(C)C)C(=O)C(=O)Nc1ccnn1C1CCC1 [Example 35, (1S)-2,2-dimethyl-1-({4-[4-(trifluoromethyl)phenyl]-1H-imidazol-1-yl}methyl)propyl(1S)-1-[[(1-cyclobutyl-1H-pyrazol-5-yl)amino](oxo)acetyl]pentylcarbamate]
